This note sets out measurements from ChEMBL document CHEMBL1132812, “Novel phosphinic and phosphonic acid analogues of the anticonvulsant valproic acid” (Bioorg Med Chem Lett, 2000).

The source made the active and inactive calls. The rule behind the calls is not given here.

The species entered for assay [1] is Rattus norvegicus. As to the kind of experiment: Compound was evaluated for the anticonvulsant activity in amygdala kindled rats; Inactive. It is filed as functional, organism-based.
For assay [2], the target named is T1, Succinate-semialdehyde dehydrogenase, mitochondrial (Homo sapiens) (UniProt P51649).
T1 sequence (whole entry): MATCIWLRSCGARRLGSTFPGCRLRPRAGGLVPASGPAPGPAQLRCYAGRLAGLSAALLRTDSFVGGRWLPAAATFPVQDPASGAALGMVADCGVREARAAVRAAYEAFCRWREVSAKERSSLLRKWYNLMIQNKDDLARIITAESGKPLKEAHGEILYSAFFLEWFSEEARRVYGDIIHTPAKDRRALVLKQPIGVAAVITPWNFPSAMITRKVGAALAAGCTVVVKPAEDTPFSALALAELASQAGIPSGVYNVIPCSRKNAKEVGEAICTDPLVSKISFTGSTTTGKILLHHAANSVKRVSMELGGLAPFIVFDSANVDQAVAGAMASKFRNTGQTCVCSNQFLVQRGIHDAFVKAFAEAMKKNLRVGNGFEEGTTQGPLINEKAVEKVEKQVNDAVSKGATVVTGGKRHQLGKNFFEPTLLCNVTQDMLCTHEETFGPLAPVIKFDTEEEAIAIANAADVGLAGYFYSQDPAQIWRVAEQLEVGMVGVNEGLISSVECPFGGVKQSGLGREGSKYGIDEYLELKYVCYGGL
The assay is described as follows: Compound was tested for the inhibition of succinic semialdehyde dehydrogenase; Active.

The target of assay [3] is 4-aminobutyrate aminotransferase, mitochondrial (Homo sapiens) (UniProt P80404). The assay is described as follows: Compound was tested for the inhibition of Gamma-amino-N-butyrate transaminase; Active.
Sequence of 4-aminobutyrate aminotransferase, mitochondrial (Homo sapiens) (P80404 whole entry): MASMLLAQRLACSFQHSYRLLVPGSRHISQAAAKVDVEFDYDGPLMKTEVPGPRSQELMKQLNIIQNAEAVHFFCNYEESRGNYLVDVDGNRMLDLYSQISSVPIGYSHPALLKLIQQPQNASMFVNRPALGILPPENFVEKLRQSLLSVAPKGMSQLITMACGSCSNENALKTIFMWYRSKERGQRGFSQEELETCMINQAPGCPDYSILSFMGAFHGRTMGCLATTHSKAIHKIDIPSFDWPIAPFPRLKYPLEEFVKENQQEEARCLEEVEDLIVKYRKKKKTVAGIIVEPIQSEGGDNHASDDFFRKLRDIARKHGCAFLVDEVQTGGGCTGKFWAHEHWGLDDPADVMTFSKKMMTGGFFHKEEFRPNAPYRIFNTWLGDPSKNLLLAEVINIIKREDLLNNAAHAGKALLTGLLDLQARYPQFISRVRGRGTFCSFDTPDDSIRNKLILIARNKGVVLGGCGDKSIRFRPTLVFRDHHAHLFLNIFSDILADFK
Assay [4] is filed under the species Rattus norvegicus. The assay is described as follows: Compound was evaluated for the anticonvulsant activity in amygdala kindled rats; Active. It is filed as functional, organism-based.

For the molecule `CCCC(CCC)P(C)(=O)O`, in assay [1], the outcome was inactive.

`CCCC(CCC)P(=O)(O)O`: in assay [1], the outcome was inactive. `CCCC(CCC)[PH](=O)O`: the result in assay [1] was inactive. Take `CCCC(CCC)C(=O)O`: the outcome in assay [2], in assay [3] and in assay [4] was Active.
